# US20110117125A1, “COMPOSITIONS AND METHODS FOR THE DELIVERY OF NUCLEIC ACIDS” (TEKMIRA PHARMACEUTICALS CORPORATION, priority 2008, published 2011)
# Legend:
# [1] = ODN 14 compared with ODN 1; cited from earlier work
# Factor VII = Factor VII knockdown in mice by FVII siRNA lipid particles; format: in vivo; conditions: 40/10/40/10 aminolipid/DSPC/Chol/PEG-S-DMG, IV, C57BL/6 mice, 24 hours post-injection
# Experimental: Factor VII (FVII), a prominent protein in the coagulation cascade, is synthesized in the liver (hepatocytes) and secreted into the plasma. FVII levels in plasma can be determined by a simple, plate-based colorimetric assay. As such, FVII represents a convenient model for determining siRNA-mediated downregulation of hepatocyte-derived proteins, as well as monitoring plasma concentrations and tissue distribution of the nucleic acid lipid particles and siRNA.
# FVII activity was evaluated in FVII siRNA-treated animals at 24 hours after intravenous (bolus) injection in C57BL/6 mice. FVII was measured using a commercially available kit (Biophen FVII Kit™; Aniara Corp., Mason, Ohio), following the manufacturer's instructions at a microplate scale. FVII reduction was determined against untreated control mice, and the results were expressed as % Residual FVII. […]
# The MTD for these studies was set as the lowest dose causing >7% decrease in body weight and a>200-fold increase in alanine aminotransferase (ALT), a clinical chemistry marker with good specificity for liver damage in rodents. The ED50 was determined from FVII dose-activity curves.
# The ability of various lipid formulations to knockdown Factor VII expression was determined in a liver model using Factor VII siRNA, in order to evaluate the impact of aminolipid linker chemistry. […]
Compound,immunostimulatory / biological activity [1],improvement of dose (mg/kg) to achieve 50% Factor VII reduction versus ester linkage (DLinDAP lipid) (Factor VII),improvement of dose (mg/kg) to achieve 50% Factor VII reduction versus ether linkage (DLinDMA lipid) (Factor VII)
"5′-AACC GTT GAG GGG CAT-3′ (DNA AACCGTTGAGGGGCAT; DNA, backbone and methylation of C not given here) [ODN 14]","ODN 14 is a 15-mer oligonucleotide and ODN 1 is the same oligonucleotide having a thymidine added onto the 5′ end making ODN 1 into a 16-mer. No difference in biological activity between ODN 14 and ODN 1 has been detected and both exhibit similar immunostimulatory activity (Mui et al., 2001)",,
"5′-TAACGTTGAGGGGCAT-3 (DNA, backbone and methylation of C not given here) [ODN 1]","ODN 14 is a 15-mer oligonucleotide and ODN 1 is the same oligonucleotide having a thymidine added onto the 5′ end making ODN 1 into a 16-mer. No difference in biological activity between ODN 14 and ODN 1 has been detected and both exhibit similar immunostimulatory activity (Mui et al., 2001)",,
"CCCCC/C=C\C/C=C\CCCCCCCCC1(CCCCCCCC/C=C\C/C=C\CCCCC)OCC(CN(C)C)O1 (stereo not shown) [DLin-K-DMA, 2,2-Dilinoleyl-4-dimethylaminomethyl-[1,3]-dioxolane]",,approximately 100 -fold,approximately 10 -fold
